Results on 17 compounds are retold here after BindingDB's records for doi:10.1021/acs.jmedchem.8b00082 (Abbvie, 2018).

Assay [1] in a line: Inhibition of NS5A in HuH7 cell infected HCV genotype 1b Con1 assessed as decrease in viral replication after 3 days by luciferase reporter gene assay. Background: A reporter such as luciferase makes a cellular process visible.
The nature of assay [2]: Inhibition of HCV genotype 1b Con1 NS5A expressed in HuH7 cell infected HCV genotype 3a assessed as decrease in viral replication after 3 days by luciferase reporter gene assay.
The nature of assay [3]: Inhibition of HCV genotype 1b Con1 NS5A expressed in HuH7 cell infected HCV genotype 4a assessed as decrease in viral replication after 3 days by luciferase reporter gene assay.
Assay [4] in a line: Inhibition of NS5A in HuH7 cell infected HCV genotype 1a H77 assessed as decrease in viral replication after 3 days in presence of 40% human plasma by luciferase reporter gene assay.
The nature of assay [5]: Inhibition of NS5A in HuH7 cell infected HCV genotype 1b Con1 assessed as decrease in viral replication after 3 days in presence of 40% human plasma by luciferase reporter gene assay.
Assay [6] can be described thus: Inhibition of HCV genotype 1b Con1 NS5A expressed in HuH7 cell infected HCV genotype 2a assessed as decrease in viral replication after 3 days by luciferase reporter gene assay.
The nature of assay [7]: Inhibition of NS5A in HuH7 cell infected HCV genotype 1a H77 assessed as decrease in viral replication after 3 days by luciferase reporter gene assay.
The nature of assay [8]: Inhibition of HCV genotype 1b Con1 NS5A expressed in HuH7 cell infected HCV genotype 2b assessed as decrease in viral replication after 3 days by luciferase reporter gene assay.
Assay [9] is described as follows: Inhibition of HCV genotype 1b Con1 NS5A expressed in HuH7 cell infected HCV genotype 6a assessed as decrease in viral replication after 3 days by luciferase reporter gene assay.

SMILES strings stand for the structures.

As usually defined, the EC50 is the concentration needed to bring the measured effect to its halfway point. `COC(=O)N[C@H](C(=O)N1CCC[C@H]1c1nc2ccc([C@H]3CC[C@H](c4ccc5nc([C@@H]6CCCN6C(=O)[C@@H](NC(=O)OC)C(C)C)[nH]c5c4)N3c3ccc(C4CCCCC4)cc3)cc2[nH]1)C(C)C`: the EC50 in [1] worked out at 9 pM; in assay [2] it was 8 pM; in assay [3], 9 pM; in assay [4], 107 pM; in assay [5], 178 pM; in assay [6] it was 10 pM. In addition, the EC50 came out at 4 pM in [7] and 7 pM in [8].
For the compound `COC(=O)N[C@H](C(=O)N1CCC[C@H]1c1nc2ccc([C@H]3CC[C@H](c4ccc5nc([C@@H]6CCCN6C(=O)[C@@H](NC(=O)OC)C(C)C)[nH]c5c4)N3c3ccc(N4CCC(c5ccccc5)CC4)cc3)cc2[nH]1)C(C)C`, the EC50 in assay [1] was found to be 325 pM; in assay [2], 481 pM; in assay [3], 243 pM; in assay [9], 402 pM; in [4] it was 1510 pM; in assay [5], 1510 pM. The EC50 in assay [6] amounted to 468 pM; in assay [7], 324 pM; in [8] it was 452 pM.
For the compound `COC(=O)N[C@H](C(=O)N1CCC[C@H]1c1nc2ccc([C@H]3CC[C@H](c4ccc5nc([C@@H]6CCCN6C(=O)[C@@H](NC(=O)OC)C(C)C)[nH]c5c4)N3c3ccc(N4CCOCC4)cc3)cc2[nH]1)C(C)C`, the EC50 in assay [1] was 382 pM; in [2], 1200 pM; in [3] it was 316 pM; in assay [4], 902 pM; in [5], 2070 pM; in assay [6] it was 598 pM. For the same compound, the EC50 stood at 379 pM in [7] and 960 pM in assay [8].
On to `COC(=O)N[C@H](C(=O)N1CCC[C@H]1c1nc2cc([C@H]3CC[C@H](c4ccc5[nH]c([C@@H]6CCCN6C(=O)[C@@H](NC(=O)OC)C(C)C)nc5c4)N3c3cc(F)c(N4CCCCC4)c(F)c3)ccc2[nH]1)C(C)C`, for which the EC50 came to 6 pM in assay [1]; 8 pM in assay [2]; 5 pM in [3]; 7 pM in assay [9]; 151 pM in assay [4]; 241 pM in [5]. Besides, the results for the concentration giving a half-maximal response (EC50) in [6], in assay [7] and in assay [8] were 13 pM, 5 pM and 7 pM, respectively.
Consider `COC(=O)N[C@H](C(=O)N1CCC[C@H]1c1nc2ccc([C@H]3CC[C@H](c4ccc5nc([C@@H]6CCCN6C(=O)[C@@H](NC(=O)OC)C(C)C)[nH]c5c4)N3c3ccc(C(C)(C)C)cc3)cc2[nH]1)C(C)C`, for which the EC50 was 13 pM in assay [1]; 6 pM in assay [2]; 6 pM in assay [3]; 148 pM in assay [4]; 268 pM in assay [5]; 152 pM in [6]. The EC50 in [7] came to 9 pM; in [8], 10 pM.
In the case of `COC(=O)N[C@H](C(=O)N1CCC[C@H]1c1nc2ccc([C@H]3CC[C@H](c4ccc5nc([C@@H]6CCCN6C(=O)[C@@H](NC(=O)OC)C(C)C)[nH]c5c4)N3c3ccc(Cl)cc3)cc2[nH]1)C(C)C`, the EC50 came out at 7 pM in assay [1]; 12 pM in assay [2]; 5 pM in [3]; 8 pM in assay [9]; 240 pM in assay [4]; 330 pM in assay [5]. Also, the EC50 in assay [6] came out at 12 pM; in [7], 6 pM; in assay [8], 7 pM.
Consider `COC(=O)N[C@H](C(=O)N1CCC[C@H]1c1nc2ccc([C@H]3CC[C@H](c4ccc5nc([C@@H]6CCCN6C(=O)[C@@H](NC(=O)OC)C(C)C)[nH]c5c4)N3c3ccc(-c4ccccc4)cc3)cc2[nH]1)C(C)C`, for which the EC50 in assay [1] was 3 pM; in assay [2], 16 pM; in assay [3], 6 pM; in assay [9], 11 pM; in assay [4], 75 pM; in [5], 108 pM. Further, the EC50 in assay [6] was found to be 11 pM; in [7], 4 pM; in assay [8], 9 pM.
Take `COC(=O)N[C@H](C(=O)N1CCC[C@H]1C(=O)Nc1ccc([C@H]2CC[C@H](c3ccc(NC(=O)[C@@H]4CCCN4C(=O)[C@@H](NC(=O)OC)C(C)C)cc3)N2c2ccc(C(C)(C)C)cc2)cc1)C(C)C`: the EC50 is 9 pM in assay [1], 986 pM in assay [4], 90 pM in assay [5] and 136 pM in [7].
For the compound `COC(=O)N[C@H](C(=O)N1CCC[C@H]1c1nc2ccc([C@H]3CC[C@H](c4ccc5nc([C@@H]6CCCN6C(=O)[C@@H](NC(=O)OC)C(C)C)[nH]c5c4)N3c3ccc(N4CCCCC4)c(F)c3)cc2[nH]1)C(C)C`, the EC50 in assay [1] stood at 29 pM; in assay [2] it was 44 pM; in [3] it was 17 pM; in [4], 199 pM; in assay [5] it was 383 pM; in assay [6], 48 pM. Moreover, the EC50 in [7] was determined as 18 pM; in assay [8], 30 pM.
For `COC(=O)N[C@H](C(=O)N1CCC[C@H]1c1nc2ccc([C@H]3CC[C@H](c4ccc5nc([C@@H]6CCCN6C(=O)[C@@H](NC(=O)OC)C(C)C)[nH]c5c4)N3c3ccc(OC(F)(F)F)cc3)cc2[nH]1)C(C)C`, the EC50 was found to be 12 pM in [1]; 18 pM in assay [2]; 13 pM in assay [3]; 276 pM in assay [4]; 230 pM in assay [5]; 43 pM in assay [6]. The values for the EC50 in assay [7] and in assay [8] were 19 pM and 12 pM, respectively.
Take `COC(=O)N[C@H](C(=O)N1CCC[C@H]1c1nc2ccc([C@H]3CC[C@H](c4ccc5nc([C@@H]6CCCN6C(=O)[C@@H](NC(=O)OC)C(C)C)[nH]c5c4)N3c3cc(Cl)c(N4CCCCC4)c(Cl)c3)cc2[nH]1)C(C)C`: the EC50 in assay [1] turned out to be 3 pM; in [2], 11 pM; in assay [3] it was 6 pM; in [9] it was 10 pM; in assay [4], 213 pM; in [5], 132 pM. The EC50 worked out at 44 pM in assay [6], 5 pM in [7] and 5 pM in [8].
For `COC(=O)N[C@H](C(=O)N1CCC[C@H]1c1nc2ccc([C@H]3CC[C@H](c4ccc5nc([C@@H]6CCCN6C(=O)[C@@H](NC(=O)OC)C(C)C)[nH]c5c4)N3c3cc(F)c(N4CCC(c5ccc(F)cc5)CC4)c(F)c3)cc2[nH]1)C(C)C`, the EC50 in [1] stood at 8 pM; in assay [2] it was 13 pM; in [3], 9 pM; in assay [9], 21 pM; in assay [4] it was 78 pM; in assay [5] it was 126 pM. Besides, the EC50 in assay [6] came out at 20 pM; in assay [7], 3 pM; in assay [8], 13 pM.
In the case of `COC(=O)N[C@H](C(=O)N1CCC[C@H]1c1nc2ccc([C@H]3CC[C@H](c4ccc5nc([C@@H]6CCCN6C(=O)[C@@H](NC(=O)OC)C(C)C)[nH]c5c4)N3c3ccc(Oc4ccccc4)cc3)cc2[nH]1)C(C)C`, the EC50 came out at 20 pM in assay [1]; 11 pM in assay [2]; 5 pM in assay [3]; 155 pM in assay [4]; 279 pM in assay [5]; 12 pM in assay [6]. For the same compound, the EC50 in assay [7] stood at 12 pM; in [8] it was 8 pM.
As for `COC(=O)N[C@H](C(=O)N1CCC[C@H]1c1nc2ccc([C@H]3CC[C@H](c4ccc5nc([C@@H]6CCCN6C(=O)[C@@H](NC(=O)OC)C(C)C)[nH]c5c4)N3c3ccc(C4CC4)cc3)cc2[nH]1)C(C)C`, the concentration for a half-maximal effect (EC50) in [1] is 23 pM; in assay [2], 26 pM; in [3], 20 pM; in assay [4] it was 161 pM; in [5], 354 pM; in assay [6], 41 pM. Further, the EC50 in assay [7] amounted to 12 pM; in assay [8], 20 pM.
As to `COC(=O)N[C@H](C(=O)N1CCC[C@H]1c1nc2ccc([C@@H]3CC[C@@H](c4ccc5nc([C@@H]6CCCN6C(=O)[C@@H](NC(=O)OC)C(C)C)[nH]c5c4)N3c3ccc(C(C)(C)C)cc3)cc2[nH]1)C(C)C`, the EC50 came to 13 pM in assay [1], 1980 pM in [4], 354 pM in [5] and 71 pM in assay [7].
As for `COC(=O)N[C@H](C(=O)N1CCC[C@H]1c1nc2ccc([C@H]3CC[C@H](c4ccc5nc([C@@H]6CCCN6C(=O)[C@@H](NC(=O)OC)C(C)C)[nH]c5c4)N3c3ccc(F)cc3)cc2[nH]1)C(C)C`, the half-maximal effective concentration (EC50) worked out at 25 pM in [1]; 31 pM in assay [2]; 14 pM in assay [3]; 14 pM in assay [9]; 490 pM in [4]; 427 pM in [5]. Also, the EC50 in assay [6] worked out at 28 pM; in [7], 38 pM; in [8], 21 pM.
Regarding `COC(=O)N[C@H](C(=O)N1CCC[C@H]1c1nc2ccc([C@H]3CC[C@H](c4ccc5nc([C@@H]6CCCN6C(=O)[C@@H](NC(=O)OC)C(C)C)[nH]c5c4)N3c3ccc(N4CCOCC4)c(F)c3)cc2[nH]1)C(C)C`, the EC50 in assay [1] came to 196 pM; in assay [2], 355 pM; in [3], 170 pM; in [4], 474 pM; in assay [5] it was 915 pM; in assay [6], 307 pM. Also, the values for the EC50 in assay [7] and in assay [8] were 189 pM and 229 pM, respectively.
